From article PMC11062922 (Nature Chemical Biology, 2023)
Values joined by “and” are separate entries in the source; they are usually repeats but may differ in a detail not shown here. Equal entries are not always repeated. Blank lines part the entries; values can stand above or below the compound they belong to.

Tests used:
[1] = molecular target: T1, RIPK3 (Homo sapiens, UniProt Q9Y572); experiment: Kinobeads full dose-response competition binding: RIPK3; details: Gene Name RIPK3
T1 construct: endogenous in cells

[2] = molecular target: T2, PRKCQ (Homo sapiens, UniProt Q04759); experiment: Kinobeads full dose-response competition binding: PRKCQ; details: Gene Name PRKCQ
T2 construct: to maximize the representation of endogenous proteins; endogenous in cells

[3] = molecular target: T3, EPHB1 (Homo sapiens, UniProt P54762); experiment: Kinobeads two-dose competition binding: EPHB1; details: read-out: Lestaurtinib Drugmatrix value, Gene Name EPHB1; target EPHB1; each column = one Lestaurtinib control replicate (batch_R1-R3)
T3 construct: endogenous in cells
T3 sequence (P54762 18-984): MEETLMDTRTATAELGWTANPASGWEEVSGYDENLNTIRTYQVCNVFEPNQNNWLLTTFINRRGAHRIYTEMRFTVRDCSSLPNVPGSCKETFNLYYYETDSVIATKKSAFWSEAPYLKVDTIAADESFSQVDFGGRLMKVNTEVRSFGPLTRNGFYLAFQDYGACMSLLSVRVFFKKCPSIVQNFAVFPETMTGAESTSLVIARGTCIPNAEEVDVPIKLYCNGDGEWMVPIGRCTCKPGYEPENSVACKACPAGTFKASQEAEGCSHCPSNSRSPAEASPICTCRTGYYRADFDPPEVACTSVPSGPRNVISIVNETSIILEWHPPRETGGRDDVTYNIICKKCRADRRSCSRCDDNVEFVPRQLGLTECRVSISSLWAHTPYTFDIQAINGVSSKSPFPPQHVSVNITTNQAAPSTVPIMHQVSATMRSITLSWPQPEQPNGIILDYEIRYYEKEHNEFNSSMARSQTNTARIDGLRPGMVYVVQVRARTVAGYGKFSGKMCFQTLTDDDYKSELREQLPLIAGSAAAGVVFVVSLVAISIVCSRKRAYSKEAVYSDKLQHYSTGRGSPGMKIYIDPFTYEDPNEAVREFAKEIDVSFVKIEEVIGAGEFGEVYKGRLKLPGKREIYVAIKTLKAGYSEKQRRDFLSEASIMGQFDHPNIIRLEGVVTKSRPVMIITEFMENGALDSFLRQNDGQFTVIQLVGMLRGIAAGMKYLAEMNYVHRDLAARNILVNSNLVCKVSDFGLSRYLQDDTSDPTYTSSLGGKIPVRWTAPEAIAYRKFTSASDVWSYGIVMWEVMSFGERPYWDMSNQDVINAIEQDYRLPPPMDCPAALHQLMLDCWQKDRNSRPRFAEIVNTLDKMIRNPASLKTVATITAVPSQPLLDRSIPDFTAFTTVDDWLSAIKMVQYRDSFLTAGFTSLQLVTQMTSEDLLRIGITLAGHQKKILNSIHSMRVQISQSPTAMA

[4] = molecular target: T4, EPHB4 (Homo sapiens, UniProt P54760); experiment: Kinobeads two-dose competition binding: EPHB4; details: read-out: Lestaurtinib Drugmatrix value, Gene Name EPHB4; target EPHB4; each column = one Lestaurtinib control replicate (batch_R1-R3)
T4 construct: endogenous in cells
T4 sequence (P54760 16-987): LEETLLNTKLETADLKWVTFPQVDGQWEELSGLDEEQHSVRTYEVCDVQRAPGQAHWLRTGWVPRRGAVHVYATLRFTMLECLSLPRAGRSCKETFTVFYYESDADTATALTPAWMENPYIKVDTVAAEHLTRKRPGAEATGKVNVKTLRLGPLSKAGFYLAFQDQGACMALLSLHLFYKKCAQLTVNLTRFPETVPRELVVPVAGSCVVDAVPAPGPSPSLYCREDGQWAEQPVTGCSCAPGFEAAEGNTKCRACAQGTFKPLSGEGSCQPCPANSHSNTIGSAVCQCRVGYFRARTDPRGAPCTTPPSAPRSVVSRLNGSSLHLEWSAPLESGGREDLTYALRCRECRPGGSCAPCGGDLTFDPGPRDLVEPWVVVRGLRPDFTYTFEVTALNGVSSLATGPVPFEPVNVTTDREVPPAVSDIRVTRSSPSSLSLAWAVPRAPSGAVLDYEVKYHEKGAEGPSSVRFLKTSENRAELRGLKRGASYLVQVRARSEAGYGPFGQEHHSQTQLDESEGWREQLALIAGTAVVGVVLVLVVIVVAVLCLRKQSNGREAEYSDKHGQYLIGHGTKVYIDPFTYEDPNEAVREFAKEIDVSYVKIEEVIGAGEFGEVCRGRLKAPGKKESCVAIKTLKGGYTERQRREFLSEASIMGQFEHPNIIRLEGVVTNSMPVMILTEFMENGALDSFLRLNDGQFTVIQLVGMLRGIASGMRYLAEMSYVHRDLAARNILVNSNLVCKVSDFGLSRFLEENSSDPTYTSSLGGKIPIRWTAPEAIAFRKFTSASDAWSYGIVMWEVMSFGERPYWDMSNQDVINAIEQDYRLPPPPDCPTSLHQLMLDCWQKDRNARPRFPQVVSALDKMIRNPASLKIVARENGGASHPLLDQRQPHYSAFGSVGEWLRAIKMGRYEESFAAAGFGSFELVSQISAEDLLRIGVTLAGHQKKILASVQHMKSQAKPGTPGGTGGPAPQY

[5] = EC50 with Correction, doses in nM, read-out: apparent Kd
[6] = eight-dose curve fit, doses in nM

T2 sequence (Q04759 whole entry): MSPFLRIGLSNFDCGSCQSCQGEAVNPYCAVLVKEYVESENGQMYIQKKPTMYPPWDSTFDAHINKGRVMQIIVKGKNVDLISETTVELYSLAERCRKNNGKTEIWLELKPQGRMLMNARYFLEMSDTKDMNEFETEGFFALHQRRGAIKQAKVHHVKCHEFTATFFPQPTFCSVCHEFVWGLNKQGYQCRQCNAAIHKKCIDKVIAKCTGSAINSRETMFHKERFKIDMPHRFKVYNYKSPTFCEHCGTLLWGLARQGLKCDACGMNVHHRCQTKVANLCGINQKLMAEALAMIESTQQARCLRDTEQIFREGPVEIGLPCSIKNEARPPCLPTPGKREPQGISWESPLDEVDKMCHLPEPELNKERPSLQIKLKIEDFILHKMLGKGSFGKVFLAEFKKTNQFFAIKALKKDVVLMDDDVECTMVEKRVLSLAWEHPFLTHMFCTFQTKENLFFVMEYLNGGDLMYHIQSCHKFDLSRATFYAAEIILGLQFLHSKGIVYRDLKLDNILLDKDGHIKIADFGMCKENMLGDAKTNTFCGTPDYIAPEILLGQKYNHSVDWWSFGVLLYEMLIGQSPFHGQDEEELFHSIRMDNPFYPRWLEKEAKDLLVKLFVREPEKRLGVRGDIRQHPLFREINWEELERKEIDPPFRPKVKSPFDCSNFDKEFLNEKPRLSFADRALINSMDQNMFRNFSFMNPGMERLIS
T1 sequence (Q9Y572 whole entry): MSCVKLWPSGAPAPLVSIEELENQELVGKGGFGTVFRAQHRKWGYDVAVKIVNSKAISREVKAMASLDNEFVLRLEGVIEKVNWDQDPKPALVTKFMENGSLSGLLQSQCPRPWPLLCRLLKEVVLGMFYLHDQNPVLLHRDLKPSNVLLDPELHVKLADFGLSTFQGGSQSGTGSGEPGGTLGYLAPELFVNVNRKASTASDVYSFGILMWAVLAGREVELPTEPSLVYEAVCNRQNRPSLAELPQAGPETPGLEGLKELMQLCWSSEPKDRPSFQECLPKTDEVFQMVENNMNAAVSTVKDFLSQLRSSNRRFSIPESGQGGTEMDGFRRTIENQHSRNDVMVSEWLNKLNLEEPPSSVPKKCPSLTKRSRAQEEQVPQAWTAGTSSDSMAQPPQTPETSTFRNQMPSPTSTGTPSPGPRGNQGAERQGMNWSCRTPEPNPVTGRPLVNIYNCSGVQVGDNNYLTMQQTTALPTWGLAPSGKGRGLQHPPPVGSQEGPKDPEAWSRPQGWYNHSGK

Structure (SMILES): NCc1ccc(-c2nc(-c3ccncc3)c(-c3ccc(Cl)c(O)c3)[nH]2)cc1 [SB-476429-A]
Relative Intensity 0.3nM ([1]; 0.3nM compound, DMSO = 1): 1.0435
Relative Intensity 1nM ([1]; 1nM compound, DMSO = 1): 1.078
Relative Intensity 3nM ([1]; 3nM compound, DMSO = 1): 1.023
Relative Intensity 10nM ([1]; 10nM compound, DMSO = 1): 0.8405
Relative Intensity 30nM ([1]; 30nM compound, DMSO = 1): 0.9631
Relative Intensity 100nM ([1]; 100nM compound, DMSO = 1): 1.023
Relative Intensity 300nM ([1]; 300nM compound, DMSO = 1): 0.7216
Relative Intensity 1000nM ([1]; 1000nM compound, DMSO = 1): 0.4701
Kd [1, 5]: 289 nM
EC50 [1, 6]: 296 nM

Relative Intensity 0.3nM ([2]; 0.3nM compound, DMSO = 1): 0.9348
Relative Intensity 1nM ([2]; 1nM compound, DMSO = 1): 1.037
Relative Intensity 3nM ([2]; 3nM compound, DMSO = 1): 0.9215
Relative Intensity 10nM ([2]; 10nM compound, DMSO = 1): 0.8429
Relative Intensity 30nM ([2]; 30nM compound, DMSO = 1): 0.5346
Relative Intensity 100nM ([2]; 100nM compound, DMSO = 1): 0.4204
Relative Intensity 300nM ([2]; 300nM compound, DMSO = 1): 0
Relative Intensity 1000nM ([2]; 1000nM compound, DMSO = 1): 0
Kd [2, 5]: 58.7 nM
EC50 [2, 6]: 58.7 nM
Structure (SMILES): CCn1c(-c2nonc2N)nc2c(C#CC(C)(C)O)nc(OCCN)cc21 [GSK902056A]

Structure (SMILES): C[C@]12O[C@H](C[C@]1(O)CO)n1c3ccccc3c3c4c(c5c6ccccc6n2c5c31)CNC4=O [Lestaurtinib]
potency estimated from few doses [3]: 403 nM
potency estimated from few doses [4]: 207 nM and 689 nM
